These are literature values, as cited in patent US20150173349A1, “Agroformulation comprising copolymer of an amide, polyalkylene glycol (meth)acrylate, and alkyl (meth)acrylate” (BASF SE, priority 2012, published 2015).

Converted amounts (≈) assume the structure as drawn.

For this data set the following is noted: 20° C.

On to `Cn1cc(C(=O)Nc2ccccc2-c2cc(F)c(F)c(F)c2)c(C(F)F)n1` [fluxapyroxad], for which the solubility in water was 3.88 µg/mL (≈ 10.2 µM).
